Drawing on patent publication US10457655B2, “Compounds and compositions for inhibition of FASN” (FORMA Therapeutics, Inc., priority 2013, dated 2019), this text covers IC50 for 35 compounds.

Like-named read-outs stand apart in the source and are kept apart here. Some results are limits rather than exact numbers.

The term IC50 denotes the midpoint of a concentration-inhibition curve.

For one assay, the system named is PC3 cells. In words: Cell Proliferation Assays for FASN Inhibitors (PC3 cells, MTT). The format is cell-based. The note with it: Homo sapiens, PC-3, 96 h. As for the experimental part: The effects of the FASN inhibitors on cultured cancer cell proliferation were studies with cell proliferation assays. PC3 cells were maintained at standard culture media (F12K media supplemented with 10% fetal bovine serum, 1×MEM nonessential amino acid and 1× penicillin/streptomycin). 2000-3000 cells/100 μL/well was seeded in a 96-well clear culture plate. The cells were incubated overnight in 5% CO2 at 37° C. for attachment. Cell media were removed and replaced with F12K media containing 10% lipid reduced serum and compound. The final DMSO concentration is 0.1%. The cells were maintained in 5% CO2 at 37° C. for 4 days. The viability of cells was determined by MTT assays. The IC50 of a given compound was calculated by fitting the dose response curve with a four parameter logistic equation.

The target of the next assay is FASN enzyme (Homo sapiens, UniProt P49327). In words: Enzymatic Assay for FASN Inhibitors. In kind it is biochemical. Summed up: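 40 nM FASN preincubated with compound 60 min at 25° C in HEPES pH 7.3 buffer with 0.04% Triton X-100. Then 20 μM acetyl-CoA, 60 μM malonyl-CoA and 100 μM NADPH added for 90 min, quenched with CPM thiol probe; fluorescence 360/530 nm, IC50 by four-parameter fit.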
Chain of FASN enzyme (P49327 whole entry): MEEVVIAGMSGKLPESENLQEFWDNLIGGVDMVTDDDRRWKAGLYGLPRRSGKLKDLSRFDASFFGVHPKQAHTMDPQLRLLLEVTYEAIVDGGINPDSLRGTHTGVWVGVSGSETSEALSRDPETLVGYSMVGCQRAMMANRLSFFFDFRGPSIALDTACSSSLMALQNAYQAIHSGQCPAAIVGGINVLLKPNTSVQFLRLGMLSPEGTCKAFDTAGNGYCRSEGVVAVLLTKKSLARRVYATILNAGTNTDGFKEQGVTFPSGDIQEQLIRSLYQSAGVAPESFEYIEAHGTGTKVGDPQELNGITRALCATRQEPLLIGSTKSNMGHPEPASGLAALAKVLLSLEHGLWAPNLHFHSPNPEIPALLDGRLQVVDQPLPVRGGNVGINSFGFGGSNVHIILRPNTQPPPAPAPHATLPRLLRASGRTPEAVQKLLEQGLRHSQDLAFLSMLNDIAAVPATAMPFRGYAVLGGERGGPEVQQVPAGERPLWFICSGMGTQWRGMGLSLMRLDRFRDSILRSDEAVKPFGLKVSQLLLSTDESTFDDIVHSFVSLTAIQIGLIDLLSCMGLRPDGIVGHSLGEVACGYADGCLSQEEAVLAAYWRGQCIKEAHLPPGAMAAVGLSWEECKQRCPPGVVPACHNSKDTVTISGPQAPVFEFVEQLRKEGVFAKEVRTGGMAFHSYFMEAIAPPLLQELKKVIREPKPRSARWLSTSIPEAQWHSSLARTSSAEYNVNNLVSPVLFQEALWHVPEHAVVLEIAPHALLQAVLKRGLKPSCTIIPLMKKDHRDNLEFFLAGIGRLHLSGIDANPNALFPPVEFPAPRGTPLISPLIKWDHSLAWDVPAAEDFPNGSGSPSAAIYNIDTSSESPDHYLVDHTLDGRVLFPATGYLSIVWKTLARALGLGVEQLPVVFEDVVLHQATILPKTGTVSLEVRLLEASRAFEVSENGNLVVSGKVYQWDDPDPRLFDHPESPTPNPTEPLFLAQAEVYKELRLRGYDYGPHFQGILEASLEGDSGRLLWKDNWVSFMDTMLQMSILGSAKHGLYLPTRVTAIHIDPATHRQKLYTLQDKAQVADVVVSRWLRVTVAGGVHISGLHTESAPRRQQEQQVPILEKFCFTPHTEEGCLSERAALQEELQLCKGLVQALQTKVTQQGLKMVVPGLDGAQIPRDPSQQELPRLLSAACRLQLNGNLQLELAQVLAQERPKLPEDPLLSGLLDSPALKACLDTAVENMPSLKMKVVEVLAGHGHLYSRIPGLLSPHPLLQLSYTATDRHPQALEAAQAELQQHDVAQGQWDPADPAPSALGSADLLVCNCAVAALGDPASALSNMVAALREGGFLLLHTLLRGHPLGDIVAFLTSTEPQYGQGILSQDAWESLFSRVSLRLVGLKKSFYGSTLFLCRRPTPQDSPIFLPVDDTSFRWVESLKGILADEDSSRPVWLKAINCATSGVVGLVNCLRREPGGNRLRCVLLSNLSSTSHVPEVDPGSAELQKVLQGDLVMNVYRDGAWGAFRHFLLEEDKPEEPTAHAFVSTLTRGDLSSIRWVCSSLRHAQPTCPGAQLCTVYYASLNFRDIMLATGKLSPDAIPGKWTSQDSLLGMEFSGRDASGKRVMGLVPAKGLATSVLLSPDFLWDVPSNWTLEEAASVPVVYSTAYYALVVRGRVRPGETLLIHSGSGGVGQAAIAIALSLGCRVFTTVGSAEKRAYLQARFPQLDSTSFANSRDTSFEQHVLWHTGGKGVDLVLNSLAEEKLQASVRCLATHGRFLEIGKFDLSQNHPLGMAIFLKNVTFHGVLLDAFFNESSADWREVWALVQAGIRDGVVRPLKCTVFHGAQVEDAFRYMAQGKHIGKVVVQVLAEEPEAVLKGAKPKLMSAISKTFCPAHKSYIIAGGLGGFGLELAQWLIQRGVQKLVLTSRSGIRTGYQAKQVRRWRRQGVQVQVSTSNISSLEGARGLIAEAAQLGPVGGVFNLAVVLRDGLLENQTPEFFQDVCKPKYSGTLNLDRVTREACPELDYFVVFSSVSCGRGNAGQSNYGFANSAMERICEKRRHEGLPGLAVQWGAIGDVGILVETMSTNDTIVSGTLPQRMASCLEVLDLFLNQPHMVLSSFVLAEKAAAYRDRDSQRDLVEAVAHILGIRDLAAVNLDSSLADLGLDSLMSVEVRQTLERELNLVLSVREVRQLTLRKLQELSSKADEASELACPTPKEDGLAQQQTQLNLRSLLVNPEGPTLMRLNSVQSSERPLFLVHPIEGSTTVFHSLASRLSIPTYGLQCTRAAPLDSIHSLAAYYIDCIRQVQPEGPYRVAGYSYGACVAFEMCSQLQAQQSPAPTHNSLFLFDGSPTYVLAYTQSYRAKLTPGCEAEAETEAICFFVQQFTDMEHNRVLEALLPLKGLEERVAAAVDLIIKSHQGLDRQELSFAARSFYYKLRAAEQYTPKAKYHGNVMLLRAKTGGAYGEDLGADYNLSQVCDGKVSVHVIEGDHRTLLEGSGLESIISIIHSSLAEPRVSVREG

Where [1] appears, read: read-out: IC50 (uM) < 0.5, 10% lipid reduced serum, 4 days, Table 3-1.
[2] abbreviates: FASN enzymatic assay, Table 2-3.
The mark [3] stands for this setting: FASN enzymatic assay, Table 2-2.

Turning to `O=C(c1ccc(-c2cnc3ccccc3c2)c(Cl)c1)N1CCN(C(=O)C2(O)CC2)CC1` [1-[(4-{[3-chloro-4-(quinolin-3-yl)phenyl]carbonyl}piperazin-1-yl)carbonyl]cyclopropan-1-ol], the figures for the IC50 in the assay with PC3 cells (setting [1]) and at FASN enzyme were less than 0.5 µM and less than 500 nM, respectively.
On to `N#Cc1ccc2nc(-c3ccc(C(=O)N4CCN(C(=O)C5(O)CC5)CC4)cc3)oc2c1` [2-[4-({4-[(1-hydroxycyclopropyl)carbonyl]piperazin-1-yl}carbonyl)phenyl]-1,3-benzoxazole-6-carbonitrile], for which the half-maximal inhibitory concentration (IC50) in the assay with PC3 cells (setting [1]) is less than 0.5 µM; at FASN enzyme, less than 500 nM.
As to `Cn1c(-c2ccc(C(=O)N3CCN(C(=O)C4(O)CC4)CC3)cc2)cc2ccccc21` [1-[(4-{[4-(1-methyl-1H-indol-2-yl)phenyl]carbonyl}piperazin-1-yl)carbonyl]cyclopropan-1-ol], the IC50 with PC3 cells (setting [1]) is less than 0.5 µM; on FASN enzyme it was less than 500 nM.
As for `Cn1ccc2cc(-c3ccc(C(=O)N4CCN(C(=O)C5(O)CC5)CC4)c(Cl)c3)ccc21` [1-[(4-{[2-chloro-4-(1-methyl-1H-indol-5-yl)phenyl]carbonyl}piperazin-1-yl)carbonyl]cyclopropan-1-ol], the values for the IC50 in the assay on PC3 cells (setting [1]) and at FASN enzyme were less than 0.5 µM and less than 500 nM, respectively.
Regarding `O=C(c1ccc(-c2ccc3cnccc3c2)cc1)N1CCN(C(=O)C2(O)CC2)CC1` [1-[(4-{[4-(isoquinolin-6-yl)phenyl]carbonyl}piperazin-1-yl)carbonyl]cyclopropan-1-ol], the results for the IC50 in the assay with PC3 cells (setting [1]) and against FASN enzyme were less than 0.5 µM and less than 500 nM, respectively.
In the case of `COc1ccc2nc(-c3ccc(C(=O)N4CCN(C(=O)C5(O)CC5)CC4)cc3)cc(C)c2c1` [1-[(4-{[4-(6-methoxy-4-methylquinolin-2-yl)phenyl]carbonyl}piperazin-1-yl)carbonyl]cyclopropan-1-ol], the IC50 in the assay on PC3 cells (setting [1]) is less than 0.5 µM; against FASN enzyme it was less than 500 nM.
Take `O=C(c1ccc(-c2cccc3[nH]ccc23)cc1)N1CCN(C(=O)C2(O)CC2)CC1` [1-[(4-{[4-(1H-indol-4-yl)phenyl]carbonyl}piperazin-1-yl)carbonyl]cyclopropan-1-ol]: the results for the IC50 in the assay on PC3 cells (setting [1]) and against FASN enzyme were less than 0.5 µM and less than 500 nM, respectively.
For `O=C(c1ccc(-c2ccc3scnc3c2)c(Cl)c1)N1CCN(C(=O)C2(O)CC2)CC1` [1-[(4-{[4-(1,3-benzothiazol-5-yl)-3-chlorophenyl]carbonyl}piperazin-1-yl)carbonyl]cyclopropan-1-ol] the same measures were less than 0.5 µM and less than 500 nM.
For `O=C(c1ccc(-c2ccc3occc3c2)cc1)N1CCN(C(=O)C2(O)CC2)CC1` [1-[(4-{[4-(1-benzofuran-5-yl)phenyl]carbonyl}piperazin-1-yl)carbonyl]cyclopropan-1-ol] the same measures were less than 0.5 µM and less than 500 nM.
The like results for `Cc1cc(C(=O)N2CCN(C(=O)C3(O)CC3)CC2)ccc1-c1cnc2ccccc2c1` [1-[(4-{[3-methyl-4-(quinolin-3-yl)phenyl]carbonyl}piperazin-1-yl)carbonyl]cyclopropan-1-ol] were, in that order, less than 0.5 µM and less than 500 nM.
For the compound `O=C(c1ccc(-c2nc3ccc(Cl)cc3o2)cc1)N1CCN(C(=O)C2(O)CC2)CC1` [1-[(4-{[4-(6-chloro-1,3-benzoxazol-2-yl)phenyl]carbonyl}piperazin-1-yl)carbonyl]cyclopropan-1-ol], the half-inhibitory concentration (IC50) is less than 0.5 µM in the assay on PC3 cells (setting [1]) and less than 500 nM at FASN enzyme.
For the compound `CC(C)S(=O)(=O)Nc1cccc(-c2ccc(C(=O)N3CCN(C(=O)C4(O)CC4)CC3)cc2)c1`, the IC50 in the assay on PC3 cells (setting [1]) was less than 0.5 µM; at FASN enzyme, less than 500 nM.
As to `Cn1cc2ccc(-c3ccc(C(=O)N4CCN(C(=O)C5(O)CC5)CC4)cc3)cc2n1` [1-[(4-{[4-(2-methyl-2H-indazol-6-yl)phenyl]carbonyl}piperazin-1-yl)carbonyl]cyclopropan-1-ol], the 50% inhibitory concentration (IC50) in the assay with PC3 cells (setting [1]) was less than 0.5 µM; against FASN enzyme, less than 500 nM.
As to `O=C(c1ccc(-c2ccc3[nH]cnc3c2)cc1)N1CCN(C(=O)C2(O)CC2)CC1` [1-[(4-{[4-(1H-1,3-benzodiazol-5-yl)phenyl]carbonyl}piperazin-1-yl)carbonyl]cyclopropan-1-ol], the IC50 in the assay on PC3 cells (setting [1]) is less than 0.5 µM; against FASN enzyme, less than 500 nM.
Consider `O=C(c1ccc(-c2ccc3[nH]ccc3c2)cc1)N1CCN(C(=O)C2CCO2)CC1` (centres unmarked) [5-[4-({4-[(oxetan-2-yl)carbonyl]piperazin-1-yl}carbonyl)phenyl]-1H-indole], for which the IC50 with PC3 cells (read-out: IC50 (uM) ≥ 0.5, 10% lipid reduced serum, 4 days, Table 3-2) is not below 0.5 µM; against FASN enzyme it was less than 500 nM.
Consider `O=C(c1ccc(-c2cnc3ccccc3c2)cc1)N1CCN(C(=O)C2(O)CCC2)CC1` [1-[(4-{[4-(quinolin-3-yl)phenyl]carbonyl}piperazin-1-yl)carbonyl]cyclobutan-1-ol], for which the IC50 is less than 0.5 µM in the assay with PC3 cells (setting [1]) and less than 500 nM at FASN enzyme.
`O=C(c1ccc(-c2cccc(NS(=O)(=O)c3ccccc3)c2)cc1)N1CCN(C(=O)C2(O)CC2)CC1` [N-{3-[4-({4-[(1-hydroxycyclopropyl)carbonyl]piperazin-1-yl}carbonyl)phenyl]phenyl}benzenesulfonamide]: the IC50 with PC3 cells (setting [1]) is less than 0.5 µM; against FASN enzyme, less than 500 nM.
In the case of `Cn1ccc2cc(-c3ccc(C(=O)N4CCN(C(=O)C5(O)CC5)CC4)cc3Cl)ccc21` [1-[(4-{[3-chloro-4-(1-methyl-1H-indol-5-yl)phenyl]carbonyl}piperazin-1-yl)carbonyl]cyclopropan-1-ol], the IC50 in the assay on PC3 cells (setting [1]) was less than 0.5 µM; against FASN enzyme, less than 500 nM.
As to `O=C(c1ccc(-c2ccc3[nH]c(=O)ccc3c2)cc1)N1CCN(C(=O)C2(O)CC2)CC1`, the IC50 in the assay on PC3 cells (setting [1]) was less than 0.5 µM.
Regarding `O=C(c1ccc(-c2cnc3cccnc3c2)cc1)N1CCN(C(=O)C2(O)CC2)CC1` [1-[(4-{[4-(1,5-naphthyridin-3-yl)phenyl]carbonyl}piperazin-1-yl)carbonyl]cyclopropan-1-ol], on FASN enzyme (setting [2]), the IC50 was not below 5000 nM.
Compound `O=C(c1ccc(-c2cccc(OCC3CC3)c2)cc1)N1CCN(C(=O)C2(O)CC2)CC1` came in with an IC50 at FASN enzyme of less than 500 nM.
The compound `COc1ccc2cc(-c3ccc(C(=O)N4CCN(C(=O)C5(O)CC5)CC4)nc3)ccc2n1` [1-[(4-{[5-(2-methoxyquinolin-6-yl)pyridin-2-yl]carbonyl}piperazin-1-yl)carbonyl]cyclopropan-1-ol] yielded an IC50 against FASN enzyme (setting [3]) of 500 to 5000 nM.
Compound `O=C(c1ccc(-c2cc(CO)ccc2Cl)cc1)N1CCN(C(=O)C2(O)CC2)CC1` [1-{[4-({4-[2-chloro-5-(hydroxymethyl)phenyl]phenyl}carbonyl)piperazin-1-yl]carbonyl}cyclopropan-1-ol] had an IC50 against FASN enzyme (setting [2]) not below 5000 nM.
The compound `Cc1nn(C)c2ccc(-c3ccc(C(=O)N4CCN(C(=O)C5CCO5)CC4)cc3)cc12` (centres unmarked) displayed a 50% inhibitory concentration (IC50) on FASN enzyme of less than 500 nM.
At FASN enzyme (setting [3]), `O=C(c1ccc(-c2cc(C(F)(F)F)ccc2Cl)cc1)N1CCN(C(=O)C2(O)CC2)CC1` [1-{[4-({4-[2-chloro-5-(trifluoromethyl)phenyl]phenyl}carbonyl)piperazin-1-yl]carbonyl}cyclopropan-1-ol] yielded an IC50 of 500 to 5000 nM.
`O=C(c1ccc(N2CCc3c(F)cccc32)cc1)N1CCN(C(=O)C2(O)CC2)CC1` [1-{4-[4-(4-fluoro-2,3-dihydro-1H-indol-1-yl)benzoyl]piperazine-1-carbonyl}cyclopropan-1-ol] gave an IC50 against FASN enzyme of less than 500 nM.
At FASN enzyme, `CC1(C)CN(C(=O)C2(O)CC2)CCN1C(=O)c1ccc(-c2ccc(Cl)cc2F)cc1` [1-{4-[4-(4-chloro-2-fluorophenyl)benzoyl]-3,3-dimethylpiperazine-1-carbonyl}cyclopropan-1-ol] yielded an IC50 of less than 500 nM.
In turn, `O=C(c1ccc(-c2ccc3ncccc3c2)cc1C(F)(F)F)N1CCN(C(=O)C2(O)CC2)CC1` [1-[(4-{[4-(quinolin-6-yl)-2-(trifluoromethyl)phenyl]carbonyl}piperazin-1-yl)carbonyl]cyclopropan-1-ol] showed an IC50 on FASN enzyme (setting [3]) of 500 to 5000 nM.
`CC1(c2cccc(-c3ccc(C(=O)N4CCN(C(=O)C5(O)CC5)CC4)cc3)c2)NC(=O)NC1=O` (centres unmarked) came in with an IC50 against FASN enzyme of less than 500 nM.
In turn, `O=C(c1ccc(-n2ncc3ccccc32)cc1)N1CCN(C(=O)C2(O)CC2)CC1` [1-{4-[4-(1H-indazol-1-yl)benzoyl]piperazine-1-carbonyl}cyclopropan-1-ol] showed an IC50 on FASN enzyme of less than 500 nM.
Take `COc1ccc(OC(F)(F)F)cc1-c1ccc(C(=O)N2CCN(C(=O)C3(O)CC3)CC2)cc1` [1-{[4-({4-[2-methoxy-5-(trifluoromethoxy)phenyl]phenyl}carbonyl)piperazin-1-yl]carbonyl}cyclopropan-1-ol]: the IC50 with PC3 cells (setting [1]) was less than 0.5 µM.
Take `CC(C)Oc1ccc(Cl)cc1-c1ccc(C(=O)N2CCN(C(=O)C3(O)CC3)CC2)cc1` [1-{[4-({4-[5-chloro-2-(propan-2-yloxy)phenyl]phenyl}carbonyl)piperazin-1-yl]carbonyl}cyclopropan-1-ol]: the IC50 against FASN enzyme (setting [2]) is not below 5000 nM.
At FASN enzyme, `O=C(c1ccc(N2CCc3[nH]c4ccccc4c3C2)cc1)N1CCN(C(=O)C2(O)CC2)CC1` [1-[4-(4-{1H,2H,3H,4H,5H-pyrido[4,3-b]indol-2-yl}benzoyl)piperazine-1-carbonyl]cyclopropan-1-ol] displayed an IC50 of less than 500 nM.
Compound `O=C(c1ccc(-c2cccc(Cl)c2Cl)cc1)N1CCN(C(=O)C2(O)CC2)CC1` [1-[(4-{[4-(2,3-dichlorophenyl)phenyl]carbonyl}piperazin-1-yl)carbonyl]cyclopropan-1-ol] had an IC50 against FASN enzyme of less than 500 nM.
Compound `O=C(c1cnc(-c2cnc3ccccc3c2)cn1)N1CCN(C(=O)C2(O)CC2)CC1` [1-[(4-{[5-(quinolin-3-yl)pyrazin-2-yl]carbonyl}piperazin-1-yl)carbonyl]cyclopropan-1-ol] came in with an IC50 on FASN enzyme (setting [3]) of 500 to 5000 nM.
